From US20100331297A1, “MODULATION OF PROTEIN TRAFFICKING” (FOLDRX PHARMACEUTICALS, INC., priority 2007, published 2010)

Target: ΔF508 CFTR (Homo sapiens, UniProt P13569, DEL508-508)
Experiment: Stabilization of ΔF508 CFTR in CFBE cells (western blot, densitometry)
Format: cell-based
Conditions: 16 hours at 37° C.
Description: In addition, efficacy of a compound can be evaluated before (first in time), concomitantly or subsequently to the above-mentioned test modalities by monitoring, e.g., (i) modulation (e.g., an improvement) of the stability of a trafficking defective protein, (ii) modulation (e.g., an improvement) of proper, physiological trafficking of the trafficking defective protein, or (iii) modulation (e.g., a restoration) in one or more functions of a trafficking defective protein. For example, in some cases, proteins (e.g., protein mutants such as ΔF508 CFTR) are prematurely degraded. Thus, the efficacy of a given compound to modulate protein trafficking can be determined by monitoring the stability of a protein in the presence as compared to the absence of the compound. For example, cells expressing a trafficking defective protein (e.g., expressing endogenously or expressing an exogenous transgene encoding a trafficking defective protein such as ΔF508 CFTR) can be cultured in the presence or absence of a compound for at least 1 hour (e.g., at least 2 hours, at least 4 hours, at least 6 hours, at least 8 hours, at least 12 hours, at least 16 hours, at least 24 hours, at least 36 hours, or at least 48 hours). Cell lysates can be prepared from the different populations of cells, suspended in Laemmli buffer (with or without reducing agent) and subjected to sodium dodecyl sulfate-polyacrylamide gel electrophoresis (SDS-PAGE). Using antibodies that specifically recognize the trafficking defective protein (e.g., CFTR), the amount of the protein in the presence as compared to in the absence of a compound can be determined by western or dot-blotting techniques. […] Where a modified state (e.g., glycosylation or phosphorylation) of a protein is indicative of increased stability, a change in the modified state of a protein can also be used to determine if a compound stabilizes the trafficking defective protein. For example, the amount of glycosylated CFTR (e.g., ΔF508 CFTR) can be assessed in the presence as compared to the absence of a compound.
The compounds can be tested for their ability to stabilize ΔF508 CTFR. CFBE cells, a cell line generated by transformation of cystic fibrosis tracheo-bronchial cells (ΔF508 CTFR homozygous) with SV40 (Bruscia et al. (2002) Gene Ther. 9(11):683-685), can be cultured with 10 μM of the selected compounds, or 10 μM VRT-325 for 16 hours at 37° C. (VRT-325 is described in, e.g., Van Goor et al. (2006) Am. J. Physiol. Lung Cell Mol. Physiol. 290:L1117-L1130). A population of cells can also be cultured with the dimethyl sulfoxide (DMSO) solvent as a control.
Following incubation, cells were lysed, solubilized in Laemmli buffer, and subjected to SDS-PAGE. CFTR protein were visualized by western blotting using an antibody specific for CFTR. Culturing CFBE cells with compound 25 (see Table I for structure) increased the amount of cellular ΔF508 CFTR protein.
The effect of different concentrations of compound 25 on ΔF508 CFTR was tested in a dose response experiment. […] The relative amounts of glysosylated and unglycosylated ΔF508 CFTR protein were visualized by western blotting (FIG. 10A), and the band intensities wer quantitated by scanning and densitometry (FIG. 10B). […] The relative amounts of glysosylated and unglycosylated ΔF508 CFTR protein were visualized by western blotting (FIG. 11A), and the band intensities wer quantitated by scanning and densitometry (FIG. 11B).

Sequence of ΔF508 CFTR (P13569 with tags, fused parts or gaps DEL508-508): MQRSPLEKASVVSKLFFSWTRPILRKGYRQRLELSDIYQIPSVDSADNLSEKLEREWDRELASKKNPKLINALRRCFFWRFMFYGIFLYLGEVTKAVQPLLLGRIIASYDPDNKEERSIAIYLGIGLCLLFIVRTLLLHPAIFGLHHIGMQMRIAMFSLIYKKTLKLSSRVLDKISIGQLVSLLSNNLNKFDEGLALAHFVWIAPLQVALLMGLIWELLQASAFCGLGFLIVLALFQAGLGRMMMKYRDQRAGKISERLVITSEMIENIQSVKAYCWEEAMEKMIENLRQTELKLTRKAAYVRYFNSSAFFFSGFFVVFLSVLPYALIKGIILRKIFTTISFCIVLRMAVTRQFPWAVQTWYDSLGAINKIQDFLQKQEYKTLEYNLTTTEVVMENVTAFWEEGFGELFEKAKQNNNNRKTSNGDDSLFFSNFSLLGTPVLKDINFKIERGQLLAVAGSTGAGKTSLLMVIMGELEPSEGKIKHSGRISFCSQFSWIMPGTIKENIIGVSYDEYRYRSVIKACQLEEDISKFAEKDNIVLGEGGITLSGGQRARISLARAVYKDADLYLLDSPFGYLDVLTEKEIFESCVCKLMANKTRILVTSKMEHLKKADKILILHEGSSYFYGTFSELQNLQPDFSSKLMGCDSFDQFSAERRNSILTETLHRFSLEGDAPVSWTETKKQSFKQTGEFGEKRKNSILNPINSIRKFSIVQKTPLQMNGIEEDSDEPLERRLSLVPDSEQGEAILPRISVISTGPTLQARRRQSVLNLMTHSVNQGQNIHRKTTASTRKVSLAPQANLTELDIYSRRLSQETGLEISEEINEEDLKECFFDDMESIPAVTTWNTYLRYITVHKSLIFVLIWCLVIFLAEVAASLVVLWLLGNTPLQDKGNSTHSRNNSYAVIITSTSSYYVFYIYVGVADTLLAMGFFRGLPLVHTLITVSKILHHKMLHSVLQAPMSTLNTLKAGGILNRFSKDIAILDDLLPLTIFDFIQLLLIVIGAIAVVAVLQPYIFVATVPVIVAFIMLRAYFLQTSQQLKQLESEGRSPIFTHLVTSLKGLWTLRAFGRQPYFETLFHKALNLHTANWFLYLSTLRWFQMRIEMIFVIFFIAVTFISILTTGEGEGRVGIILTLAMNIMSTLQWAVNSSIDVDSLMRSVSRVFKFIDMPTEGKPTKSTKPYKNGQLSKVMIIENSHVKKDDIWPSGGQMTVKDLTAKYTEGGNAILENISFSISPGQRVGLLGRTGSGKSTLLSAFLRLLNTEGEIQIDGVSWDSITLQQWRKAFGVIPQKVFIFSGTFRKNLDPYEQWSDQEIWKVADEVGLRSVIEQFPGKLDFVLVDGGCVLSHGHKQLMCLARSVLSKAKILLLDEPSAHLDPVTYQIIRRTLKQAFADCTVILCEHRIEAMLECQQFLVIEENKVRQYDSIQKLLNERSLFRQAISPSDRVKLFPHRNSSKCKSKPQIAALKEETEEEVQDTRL

CC(C)(C)n1nc(-c2ccc(Cl)cc2)c2c(N)ncnc21 [compound 25]
amount of cellular ΔF508 CFTR protein (western blot) (10 μM): increased | amount of the glycosylated form of ΔF508 CFTR (western blot) (10 μM): increased | effect on stabilizing ΔF508 CFTR relative to VRT-325 (10 μM): comparable or better | glycosylated (Band B) ΔF508 CFTR protein vs absence of compound, dose response (1.25-10 μM (compound 25), 1-10 μM (compound 5)): increased
